Results from patent US11312719B2, “9-substituted amino triazolo quinazoline derivatives as adenosine receptor antagonists, pharmaceutical compositions and their use” (Merck Sharp & Dohme Corp., priority 2018, dated 2022).

Legend:
human A2A receptors = human A2A receptors (Homo sapiens (Human), UniProt P29274); test: A2A antagonism in cAMP cell-based assay (LANCE cAMP, HEK293); settings: HEK293 cells expressing human A2A receptor
Outline: (§1)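 HEK293 cells expressing human A2A or A2B, in HBSS/5 mM HEPES/200 nM rolipram, were preincubated with compound (0.5–10,000 nM, 0.25% DMSO) 30 min at 37° C. Adenosine was then added from 300 nM (A2A) or 600 nM (A2B) solution for 30 min.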

human A2B receptors = human A2B receptors (Homo sapiens (Human), UniProt P29275); test: A2B antagonism in cAMP cell-based assay (LANCE cAMP, HEK293); settings: HEK293 cells expressing human A2B receptor; for A2B cAMP % Inh. @10000 nM: at 10000 nM
Outline: as §1

Chain of human A2B receptors (P29275 whole entry): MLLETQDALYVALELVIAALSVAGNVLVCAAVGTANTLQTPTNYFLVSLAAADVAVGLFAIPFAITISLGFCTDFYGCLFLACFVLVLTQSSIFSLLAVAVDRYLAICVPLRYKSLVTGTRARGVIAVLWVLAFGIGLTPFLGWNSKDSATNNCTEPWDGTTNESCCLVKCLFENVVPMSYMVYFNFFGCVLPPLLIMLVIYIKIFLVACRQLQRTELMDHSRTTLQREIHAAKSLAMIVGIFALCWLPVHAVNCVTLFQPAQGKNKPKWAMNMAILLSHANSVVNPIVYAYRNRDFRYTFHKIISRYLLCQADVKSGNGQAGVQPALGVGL
Chain of human A2A receptors (P29274 whole entry): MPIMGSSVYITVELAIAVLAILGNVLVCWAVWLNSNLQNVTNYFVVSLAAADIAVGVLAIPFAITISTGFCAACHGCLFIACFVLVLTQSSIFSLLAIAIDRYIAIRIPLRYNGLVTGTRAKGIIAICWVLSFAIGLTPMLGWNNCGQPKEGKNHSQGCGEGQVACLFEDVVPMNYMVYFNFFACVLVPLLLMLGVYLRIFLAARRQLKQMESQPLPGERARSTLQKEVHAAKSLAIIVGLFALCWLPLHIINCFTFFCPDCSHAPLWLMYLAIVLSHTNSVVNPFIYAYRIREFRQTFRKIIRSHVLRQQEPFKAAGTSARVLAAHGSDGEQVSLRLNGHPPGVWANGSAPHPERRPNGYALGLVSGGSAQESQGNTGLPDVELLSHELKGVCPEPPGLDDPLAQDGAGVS

| SMILES | IC50 (human A2A receptors) | IC50 (human A2B receptors) | A2B cAMP % Inh. @10000 nM (human A2B receptors) |
| --- | --- | --- | --- |
| CC(O)C(C)n1cc(N2CCC[C@@H](c3nc4c5cc(F)cc(F)c5nc(N)n4n3)C2)cn1 (single isomer, unassigned) [Example 204, (2S,3R or 2R,3S)-3-(4-((R)-3-(5-amino-7,9-difluoro-[1,2,4]triazolo[1,5-c]quinazolin-2-yl)piperidin-1-yl)-1H-pyrazol-1-yl)butan-2-ol] | 7.8 nM | 87.7 nM | – |
| COc1cc(F)cc2c1nc(N)n1nc(C3CC(C)CN(c4cn(C(C)(C)C(C)O)nc4C)C3)nc21 (single isomer, unassigned) [Example 205, (R or S)-3-(4-((3R,5S or 3S,5R)-3-(5-amino-9-fluoro-7-methoxy-[1,2,4]triazolo[1,5-c]quinazolin-2-yl)-5-methylpiperidin-1-yl)-3-methyl-1H-pyrazol-1-yl)-3-methylbutan-2-ol] | 7 nM | 1150 nM | – |
| COc1cc2nc(N)n3nc([C@@H]4C[C@H](C)CN(c5cn([C@@H](C)[C@H](C)O)nc5C)C4)nc3c2cc1F (single isomer, unassigned) [Example 208, (2S,3S or 2R,3R)-3-(4-((3R,5S or 3S,5R)-3-(5-amino-9-fluoro-8-methoxy-[1,2,4]triazolo[1,5-c]quinazolin-2-yl)-5-methylpiperidin-1-yl)-3-methyl-1H-pyrazol-1-yl)butan-2-ol] | 0.7 nM | 2800 nM | – |
| COc1cc2nc(N)n3nc([C@@H]4C[C@H](C)CN(c5cn([C@H](C)[C@@H](C)O)nc5C)C4)nc3c2cc1F (single isomer, unassigned) [Example 209, (2R,3R or 2S,3S)-3-(4-((3R,5S or 3S,5R)-3-(5-amino-9-fluoro-8-methoxy-[1,2,4]triazolo[1,5-c]quinazolin-2-yl)-5-methylpiperidin-1-yl)-3-methyl-1H-pyrazol-1-yl)butan-2-ol] | 0.7 nM | 635 nM | – |
| COc1cc2nc(N)n3nc([C@H]4C[C@@H](C)CN(c5cn([C@H](C)[C@@H](C)O)nc5C)C4)nc3c2cc1F (single isomer, unassigned) [Example 210, (2R,3R or 2S,3S)-3-(4-((3S,5R or 3R,5S)-3-(5-amino-9-fluoro-8-methoxy-[1,2,4]triazolo[1,5-c]quinazolin-2-yl)-5-methylpiperidin-1-yl)-3-methyl-1H-pyrazol-1-yl)butan-2-ol] | 16.2 nM | – | 35% Inh. |
| COc1cc2nc(N)n3nc([C@H]4C[C@@H](C)CN(c5cn([C@@H](C)[C@H](C)O)nc5C)C4)nc3c2cc1F (single isomer, unassigned) [Example 211, (2S,3S or 2R,3R)-3-(4-((3S,5R or 3R,5S)-3-(5-amino-9-fluoro-8-methoxy-[1,2,4]triazolo[1,5-c]quinazolin-2-yl)-5-methylpiperidin-1-yl)-3-methyl-1H-pyrazol-1-yl)butan-2-ol] | 89.3 nM | > 10000 nM | – |
| Cc1nn(C(C)C(C)O)cc1N1CC(C)CC(c2nc3c4cc(F)cc(F)c4nc(N)n3n2)C1 (single isomer, unassigned) [Example 214, (2R,3R or 2S,3S)-3-(4-((3S,5R or 3R,5S)-3-(5-amino-7,9-difluoro-[1,2,4]triazolo[1,5-c]quinazolin-2-yl)-5-methylpiperidin-1-yl)-3-methyl-1H-pyrazol-1-yl)butan-2-ol] | 0.5 nM | 34.1 nM | – |
| Cc1nn(C(C)C(C)O)cc1N1CC(C)CC(c2nc3c4cc(F)cc(F)c4nc(N)n3n2)C1 (single isomer, unassigned) [Example 215, (2S,3S or 2R,3R)-3-(4-((3S,5R or 3R,5S)-3-(5-amino-7,9-difluoro-[1,2,4]triazolo[1,5-c]quinazolin-2-yl)-5-methylpiperidin-1-yl)-3-methyl-1H-pyrazol-1-yl)butan-2-ol] | 0.4 nM | 27.5 nM | – |
| Cc1c(N2CC(C)CC(c3nc4c5cc(F)cc(F)c5nc(N)n4n3)C2)cnn1C(C)C(C)O (single isomer, unassigned) [Example 217, (2R,3R or 2S,3S)-3-(4-((3R,5S or 3S,5R)-3-(5-amino-7,9-difluoro-[1,2,4]triazolo[1,5-c]quinazolin-2-yl)-5-methylpiperidin-1-yl)-5-methyl-1H-pyrazol-1-yl)butan-2-ol] | 1.1 nM | 161 nM | – |
| COc1cc(F)cc2c1nc(N)n1nc(C3CC(C)CN(c4cnn(C(C)C(C)O)c4C)C3)nc21 (single isomer, unassigned) [Example 220, (2S,3S or 2R,3R)-3-(4-((3R,5S or 3S,5R)-3-(5-amino-9-fluoro-7-methoxy-[1,2,4]triazolo[1,5-c]quinazolin-2-yl)-5-methylpiperidin-1-yl)-5-methyl-1H-pyrazol-1-yl)butan-2-ol] | 20.4 nM | – | 30% Inh. |
| COc1cc(F)cc2c1nc(N)n1nc(C3CC(C)CN(c4cnn(C(C)C(C)O)c4C)C3)nc21 (single isomer, unassigned) [Example 222, (2R,3R or 2S,3S)-3-(4-((3S,5R or 3R,5S)-3-(5-amino-9-fluoro-7-methoxy-[1,2,4]triazolo[1,5-c]quinazolin-2-yl)-5-methylpiperidin-1-yl)-5-methyl-1H-pyrazol-1-yl)butan-2-ol] | 34.6 nM | 3280 nM | – |
| COc1cc2nc(N)n3nc([C@@H]4CC[C@H](C)N(c5cnn([C@@H](C)[C@H](C)O)c5)C4)nc3c2cc1F (single isomer, unassigned) [Example 228, (2S,3S or 2R,3R)-3-(4-((2S,5R or 2R,5S)-5-(5-amino-9-fluoro-8-methoxy-[1,2,4]triazolo[1,5-c]quinazolin-2-yl)-2-methylpiperidin-1-yl)-1H-pyrazol-1-yl)butan-2-ol] | 0.8 nM | 16.1 nM | – |

Now from value to molecule:

| IC50 (human A2A receptors) | IC50 (human A2B receptors) | A2B cAMP % Inh. @10000 nM (human A2B receptors) | SMILES |
| --- | --- | --- | --- |
| 13 nM | 4310 nM | – | COc1cc(F)cc2c1nc(N)n1nc(C3CC(C)CN(c4cn(C(C)(C)C(C)O)nc4C)C3)nc21 (single isomer, unassigned) [Example 206, (S or R)-3-(4-((3R,5S or 3S,5R)-3-(5-amino-9-fluoro-7-methoxy-[1,2,4]triazolo[1,5-c]quinazolin-2-yl)-5-methylpiperidin-1-yl)-3-methyl-1H-pyrazol-1-yl)-3-methylbutan-2-ol] |
| 0.9 nM | 10.4 nM | – | COc1cc(F)cc2c1nc(N)n1nc(C3CC(C)CN(c4cn(C(C)(C)C(C)O)nc4C)C3)nc21 (single isomer, unassigned) [Example 207, (R or S)-3-(4-((3S,5R or 3R,5S)-3-(5-amino-9-fluoro-7-methoxy-[1,2,4]triazolo[1,5-c]quinazolin-2-yl)-5-methylpiperidin-1-yl)-3-methyl-1H-pyrazol-1-yl)-3-methylbutan-2-ol] |
| 122 nM | – | 27% Inh. | Cc1nn(C(C)C(C)O)cc1N1CC(C)CC(c2nc3c4cc(F)cc(F)c4nc(N)n3n2)C1 (single isomer, unassigned) [Example 212, (2S,3S or 2R,3R)-3-(4-((3R,5S or 3S,5R)-3-(5-amino-7,9-difluoro-[1,2,4]triazolo[1,5-c]quinazolin-2-yl)-5-methylpiperidin-1-yl)-3-methyl-1H-pyrazol-1-yl)butan-2-ol] |
| 331 nM | > 10000 nM | – | Cc1nn(C(C)C(C)O)cc1N1CC(C)CC(c2nc3c4cc(F)cc(F)c4nc(N)n3n2)C1 (single isomer, unassigned) [Example 213, (2R,3R or 2S,3S)-3-(4-((3R,5S or 3S,5R)-3-(5-amino-7,9-difluoro-[1,2,4]triazolo[1,5-c]quinazolin-2-yl)-5-methylpiperidin-1-yl)-3-methyl-1H-pyrazol-1-yl)butan-2-ol] |
| 1 nM | 160 nM | – | Cc1c(N2CC(C)CC(c3nc4c5cc(F)cc(F)c5nc(N)n4n3)C2)cnn1C(C)C(C)O (single isomer, unassigned) [Example 216, (2S,3S or 2R,3R)-3-(4-((3R,5S or 3S,5R)-3-(5-amino-7,9-difluoro-[1,2,4]triazolo[1,5-c]quinazolin-2-yl)-5-methylpiperidin-1-yl)-5-methyl-1H-pyrazol-1-yl)butan-2-ol] |
| 236 nM | 5780 nM | – | Cc1c(N2CC(C)CC(c3nc4c5cc(F)cc(F)c5nc(N)n4n3)C2)cnn1C(C)C(C)O (single isomer, unassigned) [Example 218, (2R,3R or 2S,3S)-3-(4-((3S,5R or 3R,5S)-3-(5-amino-7,9-difluoro-[1,2,4]triazolo[1,5-c]quinazolin-2-yl)-5-methylpiperidin-1-yl)-5-methyl-1H-pyrazol-1-yl)butan-2-ol] |
| 247 nM | – | 27% Inh. | Cc1c(N2CC(C)CC(c3nc4c5cc(F)cc(F)c5nc(N)n4n3)C2)cnn1C(C)C(C)O (single isomer, unassigned) [Example 219, (2S,3S or 2R,3R)-3-(4-((3S,5R or 3R,5S)-3-(5-amino-7,9-difluoro-[1,2,4]triazolo[1,5-c]quinazolin-2-yl)-5-methylpiperidin-1-yl)-5-methyl-1H-pyrazol-1-yl)butan-2-ol] |
| 0.5 nM | 63 nM | – | COc1cc(F)cc2c1nc(N)n1nc(C3CC(C)CN(c4cnn(C(C)C(C)O)c4C)C3)nc21 (single isomer, unassigned) [Example 221, (2R,3R or 2S,3S)-3-(4-((3R,5S or 3S,5R)-3-(5-amino-9-fluoro-7-methoxy-[1,2,4]triazolo[1,5-c]quinazolin-2-yl)-5-methylpiperidin-1-yl)-5-methyl-1H-pyrazol-1-yl)butan-2-ol] |
| 0.7 nM | 46 nM | – | COc1cc(F)cc2c1nc(N)n1nc(C3CC(C)CN(c4cnn(C(C)C(C)O)c4C)C3)nc21 (single isomer, unassigned) [Example 223, (2S,3S or 2R,3R)-3-(4-((3S,5R or 3R,5S)-3-(5-amino-9-fluoro-7-methoxy-[1,2,4]triazolo[1,5-c]quinazolin-2-yl)-5-methylpiperidin-1-yl)-5-methyl-1H-pyrazol-1-yl)butan-2-ol] |
